The values below come from patent US5480885A, “Ergoline derivatives of 1-propinylamine, a process for the manufacture thereof and the use thereof for medicaments” (priority 1991, dated 1996).

Usually LD50 stands for the dose expected to kill half of the subjects tested. A word on the pEC50: it is −log10 of the EC50, conventionally taken in molar units.

pEC50: −log10 of the molar value. Entries after “also recorded” stand apart in the source; their conditions may differ. Read-outs that look alike come from different tables or passages of the source.

The subject of one series is pupil. As to the kind of experiment: dilatation of the pupil in mice (Pulewka). Format: in vivo. The following applies: in words.
Series [1] is described as follows: acute toxicity in mice (Miller and Tainter). The following applies: mouse, in vivo, intravenous. The text has this:
Exptl. Biol. Med. 57, 261 (1944).

In series [2] the test system is pentobarbital-anesthetized normotensive rats. Kind of series: blood pressure and heart rate in pentobarbital-anesthetized normotensive rats. Format: in vivo, rat. The settings on record: 450 μg/kg i.v.
For the next series, the target named is T1, 5-HT2 receptors (Mus musculus, UniProt P35363).
T1 construct: The head twitch model in mice; from tissue; host or cells: living mice (central nervous system)
As to the kind of experiment: head twitch response caused by the compound in mice. Type of series: in vivo. From the text: The head twitch model in mice represents an experimental model for determining the hallucinogenic action of a compound (the method was described by Handley and Singh, Br.J.Pharmacol., 86, 297-303, 1985). It is believed that the response is conveyed via the 5-HT2 receptors.

The test system of another series is pithed rats. Kind of series: vasoconstriction / diastolic pressure in pithed rats (Gillespie). Type of series: in vivo, rat. The settings on record: 450 μg/kg i.v.; in words.
The subject of another series is isolated rat uterus. As to the kind of experiment: uterotonic activity (isolated rat uterus). The settings on record: in words.
The target of series [3] is T2, isolated rabbit thoracic aorta (serotonin) (Oryctolagus cuniculus, UniProt G1SYA7).
T2 construct: isolated rabbit thoracic aorta; from tissue; host or cells: isolated rabbit thoracic aorta

The subject of series [4] is isolated rabbit thoracic aorta. Kind of series: constriction of the isolated rabbit thoracic aorta.

T1 sequence (P35363 whole entry): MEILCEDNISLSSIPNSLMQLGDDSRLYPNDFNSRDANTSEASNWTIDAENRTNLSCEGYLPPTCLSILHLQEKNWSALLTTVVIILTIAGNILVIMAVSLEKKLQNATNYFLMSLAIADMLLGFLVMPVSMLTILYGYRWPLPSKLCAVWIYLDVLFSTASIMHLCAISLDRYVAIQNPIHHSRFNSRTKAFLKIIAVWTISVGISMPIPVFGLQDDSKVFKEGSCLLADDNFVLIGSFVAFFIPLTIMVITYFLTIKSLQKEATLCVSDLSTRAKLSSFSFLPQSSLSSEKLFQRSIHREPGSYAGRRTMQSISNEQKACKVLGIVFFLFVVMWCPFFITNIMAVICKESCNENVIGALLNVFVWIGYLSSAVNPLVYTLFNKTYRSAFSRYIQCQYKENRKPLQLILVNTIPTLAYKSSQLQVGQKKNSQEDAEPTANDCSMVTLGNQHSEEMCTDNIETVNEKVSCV
T2 sequence (G1SYA7 entry or part of it): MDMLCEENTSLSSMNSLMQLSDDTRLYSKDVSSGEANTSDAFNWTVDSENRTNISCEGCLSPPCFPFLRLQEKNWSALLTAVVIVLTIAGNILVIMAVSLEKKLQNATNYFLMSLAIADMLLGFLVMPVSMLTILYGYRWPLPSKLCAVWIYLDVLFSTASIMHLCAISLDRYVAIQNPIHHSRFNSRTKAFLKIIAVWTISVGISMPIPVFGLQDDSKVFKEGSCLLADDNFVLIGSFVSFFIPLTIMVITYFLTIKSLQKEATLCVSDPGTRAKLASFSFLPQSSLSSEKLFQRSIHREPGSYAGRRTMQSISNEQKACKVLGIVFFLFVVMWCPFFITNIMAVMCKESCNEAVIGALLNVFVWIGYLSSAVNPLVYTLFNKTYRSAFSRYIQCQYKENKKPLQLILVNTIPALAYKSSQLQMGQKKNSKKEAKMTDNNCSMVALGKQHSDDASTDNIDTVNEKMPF

Regarding `C#CCN(C)C(=O)[C@@H]1C=C2c3cccc4[nH]cc(c34)C[C@H]2N(C)C1` [Example 4, 9,10-Didehydro-N-methyl-N-(2'-propinyl)-6-methylergoline-8β-carboxamide], the “dilatation of the pupil” value in the series with pupil (dose-dependent, dose not given) is given as “dose-dependent dilatation of the pupil”. Also, the “behavioural effects in mice” value in the series on pupil was “an increased activity, tremor and piloerection”. The same compound had an LD50 in series [1] of 55 mg/kg. Further, the respiratory troubles result in series [2] is recorded as “respiratory troubles could be perceived”. Moreover, in series [2] (in words), the “effect on carotid artery pressure” value is listed as “statistically non-significant changes in carotid artery pressure”. Further, in series [2] (vs initial level), the “reduction in heart rate” value is on record as 20%. Besides, at 5-HT2 receptors (0.125 to 4 mg/kg i.p., in words), the “head twitch response caused by compound” value is reported as “caused a head twitch response in mice; also recorded: at higher doses the activity decreased (autoinhibitory effect)”. In addition, the “dose of maximum head twitch activity” value at 5-HT2 receptors (i.p.) is listed as 1 mg/kg. The peripheral vasoconstriction entry in the series on pithed rats was “transient, yet extraordinarily strong peripheric vasoconstriction”. Also, the uterotonic activity result with isolated rat uterus is “lesser than the one of methylergometrine maleate”. Moreover, the “mode of inhibition of serotonin constriction” value in series [3] (in words) is “the antagonism was of competitive nature”. Further, the serotonin-antagonistic activity entry in series [3] (inactivated α1-adrenergic receptors, 0.01 to 0.3 μM) is on record as “showed a serotonin-antagonistic activity”. The “effect on maximum activity of serotonin” value in series [3] (inactivated α1-adrenergic receptors, higher doses) is given as “noticeable decrease of the maximum activity of serotonin”. Further, the Kb in series [3] (vs serotonin, inactivated α1-adrenergic receptors, smaller doses (0.1 μM), read-out: pA2 (converted)) was 4.27 nM. In addition, in series [4] (0.39 μM (EC50)), the “receptors responsible for vasoconstriction” value is “predominantly the result of the activation of α1 -adrenergic receptors and to a lesser extent of the activation of 5-HT2 receptors”. Also, in series [4] (Oryctolagus cuniculus, constriction of the isolated rabbit thoracic aorta, read-out: pD2 (converted)), the EC50 is 389 nM. For the same compound, the pEC50 in series [4] (Oryctolagus cuniculus, vasoconstriction, read-out: EC50) was 6.41. Moreover, the “constriction of the isolated rabbit thoracic aorta” value in series [4] (in words) was “caused a constriction of the isolated rabbit thoracic aorta”. The “intrinsic activity, aorta constriction” value in series [4] (in words, vs serotonin) was “comparable to that of serotonin”.
